Assay results: patent US20210147472A1, “SOLID FORMS AND FORMULATIONS COMPRISING A GLUCOCORTICOID RECEPTOR ANTAGONIST AND USES THEREOF” (ORIC Pharmaceuticals, Inc., priority 2018, published 2021)
Values after ≈ are worked out from the molar mass of the structure shown.

Experiments:
Type in all cases: physicochemical
[1] = Solubility screen of Compound 1 in lipids; conditions: oil or lipid
[2] = Effect of stabilizers on stability of Compound 1 capsule matrix (A1 formation)
Method: Two antioxidants, α-tocopherol and ascorbyl palmitate, were evaluated to minimize the oxidation. Use of α-tocopherol alone improved Compound 1 stability as measured by the formation of A1 (see Table 1). When ascorbyl palmitate was combined with α-tocopherol, further stability improvement was observed. Table 14 summarizes the compositions of the Compound 1 capsule matrix evaluated and Table 15 summarizes the effect of α-tocopherol and ascorbyl palmitate as stabilizers on the stability of Compound 1.

[3] = Solubility of Compound 1 (freebase form) in dosing vehicles, HPLC; conditions: shaken five days, 25° C. (40° C. semi-solid, 50° C. solid vehicles)
Method: This study was carried out to evaluate the solubility of Compound 1 (freebase form) in a variety of dosing vehicles to identify excipient classes that maximize drug solubility. A total of 20 vehicles which were selected and agreed with the customer were used in this study. Compound 1 was added to approximately 1 gram of the excipients. After the initial addition of Compound 1, the mixtures were shaken in a temperature-controlled vortex mixer at 25° C. (40° C. for vehicles that were semi-solid at room temperature and 50° C. for solid vehicles) then examined for solid residues. If dissolution was observed during the mixing time, additional Compound 1 was added until no further dissolution was observed. After shaking for a total of five days, the suspensions were filtered using a centrifuge tube with 0.45 PVDF membrane filter (Millipore Durapore®). The filtrate was weighed in to a 25-mL volumetric flask and diluted to volume with the diluent solution (90:10% v/v IPA/Acetonitrile) for a determination of Compound 1 concentration via High Performance Liquid Chromatography (HPLC). Residual solids were inspected by PXRD to determine the solid form. Quantitative determination of the amount of API dissolved was performed using reverse-phase HPLC analyses on an Agilent 1290 Infinity II UHPLC system equipped with a Diode Array Detector (DAD). Agilent 1290 Infinity II UHPLC system equipped with a Diode Array Detector (DAD) Mobile Phase A: 0.05% Formic acid in water Mobile Phase B: 0.05% Formic acid in acetonitrile

Question: Which Solubility ([1]; in Capmul MCM (Glyceryl monocaprylcaprate, Type I, NF)) does the source give for CC(C)N(C)c1ccc([C@H]2C[C@@]3(C)[C@@H](CC[C@@]3(O)C#CC(C)(C)C)[C@@H]3CCC4=CC(=O)CC[C@@H]4[C@H]32)cc1 [Compound 1, (8R,9S,10R,11S,13S,14S,17S)-17-(3,3-dimethylbut-1-yn-1-yl)-17-hydroxy-11-(4-(isopropyl(methyl)amino)phenyl)-13-methyl-1,2,6,7,8,9,10,11,12,13,14,15,16,17-tetradecahydro-3H-cyclopenta[a]phenanthren-3-one] here?
Answer: < 40 mg/mL

Question: And the Solubility ([1]; in Capryol 90 (Propylene glycol monocaprylate, Type II, NF))?
Answer: 40 mg/mL (≈ 79.7 mM)

Question: And the Solubility ([1]; in Capryol 90 + 5% Poloxamer P188 USP, particulate seen after 24 hours)?
Answer: 50 mg/mL

Question: And the Solubility ([1]; in Kolliphor EL (PEG-35 Castor Oil USP))?
Answer: < 40 mg/mL

Question: And the Solubility ([1]; in Labrasol ALF (Caprylocaproyl Polyoyl-8 glycerides, NF))?
Answer: 40 mg/mL (≈ 79.7 mM)

Question: And the Solubility ([1]; in Maisine CC (Caprylic/capric triglyceride NF))?
Answer: < 40 mg/mL

Question: And the Solubility ([1]; in Tween 20 (Polysorbate 20 NF))?
Answer: < 40 mg/mL

Question: What about the Solubility ([1]; in Tween 80 (polysorbate 80 NF)) of the same compound?
Answer: < 40 mg/mL

Question: What about the “Formation of A1” value ([2]; combination of α-tocopherol and ascorbyl palmitate as stabilizers) of the same compound?
Answer: substantially suppresses

Question: And the “Formation of primary oxidative N-demethylation product (A1)” value ([2]; in caprylic acid, extended stability, after about 4-6m)?
Answer: greater than 4%

Question: What about the “Compound 1 stability as measured by the formation of A1” value ([2]; use of α-tocopherol alone) of the same compound?
Answer: improved

Question: And the Solubility ([3]; in Caprylocaproyl polyoxyl-8 glycerides)?
Answer: 42.4 mg/g

Question: And the Solubility ([3]; in Decanoic acid (Capric acid))?
Answer: 201.0 mg/g

Question: What about the Solubility ([3]; in Diethyl glycol monoethyl ether) of the same compound?
Answer: 130.3 mg/g

Question: And the Solubility ([3]; in Glycerin)?
Answer: 0.1 mg/g

Question: And the Solubility ([3]; in Glyceryl caprylate/caprate)?
Answer: 79.0 mg/g

Question: And the Solubility ([3]; in Glyceryl monolinoleate)?
Answer: 41.2 mg/g

Question: What about the Solubility ([3]; in Lauroyl polyoxyl-6 glycerides) of the same compound?
Answer: 40.8 mg/g

Question: What about the Solubility ([3]; in Lauroyl polyoxyl-32 glycerides) of the same compound?
Answer: 39.2 mg/g

Question: What about the Solubility ([3]; in Medium chain triglycerides) of the same compound?
Answer: 26.1 mg/g

Question: What about the Solubility ([3]; in Octanoic acid (Caprylic acid)) of the same compound?
Answer: 199.2 mg/g

Question: What about the Solubility ([3]; in PEG 400) of the same compound?
Answer: 14.5 mg/g

Question: And the Solubility ([3]; in Polyethylene glycol monostearate)?
Answer: 34.2 mg/g

Question: What about the Solubility ([3]; in Polyethylene glycol sorbitan monolaurate) of the same compound?
Answer: 26.1 mg/g

Question: And the Solubility ([3]; in Propylene Glycol)?
Answer: 12.1 mg/g

Question: What about the Solubility ([3]; in Propylene glycol monocaprylate) of the same compound?
Answer: 139.6 mg/g

Question: And the Solubility ([3]; in Propylene glycol monolaurate)?
Answer: 68.4 mg/g

Question: And the Solubility ([3]; in Sorbitan Monolaurate)?
Answer: 34.1 mg/g

Question: What about the Solubility ([3]; in Sorbitan monooleate) of the same compound?
Answer: 19.5 mg/g

Question: What about the Solubility ([3]; in Triacetin) of the same compound?
Answer: 21.9 mg/g

Question: What about the Solubility ([3]; in Vitamin E TPGS) of the same compound?
Answer: 8.3 mg/g
